According to ChEMBL document CHEMBL3885881, “DrugMatrix”:

Species: Rattus norvegicus
Assay: DrugMatrix - Regimen: Daily Repeat
Assay type: toxicity, organism-based, Sprague-Dawley
Design: regimen Daily Repeat, gender Male, age 6-8 weeks
Settings: in vivo, iv, […], vehicle 100 % SALINE; for MONOCYTE / NEUTROPHIL / NUCLEATED RED BLOOD CELLS / ABSOLUTE BASOPHIL / ABSOLUTE EOSINOPHIL / ABSOLUTE LYMPHOCYTE / ABSOLUTE MONOCYTE / ABSOLUTE SEGMENTED NEUTROPHIL / BASOPHIL / EOSINOPHIL / ERYTHROCYTE COUNT / HEMATOCRIT / HEMOGLOBIN / LEUKOCYTE COUNT / LYMPHOCYTE / MEAN CORPUSCULAR HEMOGLOBIN / MEAN CORPUSCULAR HEMOGLOBIN CONCENTRATION / MEAN CORPUSCULAR VOLUME: tissue Blood; for ALANINE AMINOTRANSFERASE / ALKALINE PHOSPHATASE / ASPARTATE AMINOTRANSFERASE / BLOOD UREA NITROGEN / CARBON DIOXIDE / CHOLESTEROL / CREATINE PHOSPHOKINASE / CREATININE / GLUCOSE / LACTATE DEHYDROGENASE / LIPASE / SODIUM / TOTAL BILIRUBIN / TOTAL PROTEIN / URIC ACID: tissue Plasma
[1] = 72 h, dose 2.7 mg/Kg, dose level High, time 3 day
[2] = 72 h, dose 0.27 mg/Kg, dose level Low, time 3 day
[3] = 120 h, dose 0.27 mg/Kg, dose level Low, time 5 day
[4] = 120 h, dose 2.7 mg/Kg, dose level High, time 5 day

## COc1cccc2c1C(=O)c1c(O)c3c(c(O)c1C2=O)C[C@@](O)(C(=O)CO)C[C@@H]3O[C@H]1C[C@H](N)[C@@H](O)[C@H](C)O1 [EPIRUBICIN]
[1]
  MONOCYTE: 0.67%
  NEUTROPHIL: 8.67%
  NUCLEATED RED BLOOD CELLS: 0 /100WBC
  ALANINE AMINOTRANSFERASE: 33 u/L
  ALKALINE PHOSPHATASE: 297.33 u/L
  ASPARTATE AMINOTRANSFERASE: 83.67 u/L
  BLOOD UREA NITROGEN: 13 mg/dL
  CARBON DIOXIDE: 26.33 mmol/L
  CHOLESTEROL: 96.33 mg/dL
  CREATINE PHOSPHOKINASE: 442.33 u/L
  CREATININE: 0.12 mg/dL
  GLUCOSE: 146.33 mg/dL
  LACTATE DEHYDROGENASE: 682.67 u/L
  LIPASE: 10 u/L
  SODIUM: 143.33 MEQ/L
  TOTAL BILIRUBIN: 0.0667 mg/dL
  TOTAL PROTEIN: 5.73 G/DL
  URIC ACID: 1.43 mg/dL
[2]
  ALANINE AMINOTRANSFERASE: 37 u/L
  ALKALINE PHOSPHATASE: 440.33 u/L
  ASPARTATE AMINOTRANSFERASE: 76.33 u/L
  BLOOD UREA NITROGEN: 17 mg/dL
  CARBON DIOXIDE: 25 mmol/L
  CHOLESTEROL: 79.67 mg/dL
  CREATINE PHOSPHOKINASE: 317.67 u/L
  CREATININE: 0.15 mg/dL
  GLUCOSE: 161.33 mg/dL
  LACTATE DEHYDROGENASE: 433 u/L
  LIPASE: 9.33 u/L
  SODIUM: 143.3 MEQ/L
  TOTAL BILIRUBIN: 0.2 mg/dL
  TOTAL PROTEIN: 5.67 G/DL
  URIC ACID: 1.5 mg/dL
[3]
  ABSOLUTE BASOPHIL: 0 CELLS/uL
  ABSOLUTE EOSINOPHIL: 0 CELLS/uL
  ABSOLUTE LYMPHOCYTE: 12433.67 CELLS/uL
  ABSOLUTE MONOCYTE: 229 CELLS/uL
  ABSOLUTE SEGMENTED NEUTROPHIL: 504 CELLS/uL
  BASOPHIL: 0%
  EOSINOPHIL: 0%
  ERYTHROCYTE COUNT: 5.91 x10E6/uL
  HEMATOCRIT: 37.27%
  HEMOGLOBIN: 14.33 G/DL
  LEUKOCYTE COUNT: 13.17 x10E3/uL
  LYMPHOCYTE: 94.33%
  MEAN CORPUSCULAR HEMOGLOBIN: 24.27 pg
  MEAN CORPUSCULAR HEMOGLOBIN CONCENTRATION: 38.5 G/DL
  MEAN CORPUSCULAR VOLUME: 63.07 fL
  MONOCYTE: 1.67%
  NEUTROPHIL: 4%
  NUCLEATED RED BLOOD CELLS: 0 /100WBC
  ALANINE AMINOTRANSFERASE: 57.67 u/L
  ALKALINE PHOSPHATASE: 390.33 u/L
  ASPARTATE AMINOTRANSFERASE: 107.33 u/L
  BLOOD UREA NITROGEN: 16.67 mg/dL
  CARBON DIOXIDE: 25 mmol/L
  CHOLESTEROL: 75 mg/dL
  CREATINE PHOSPHOKINASE: 510.67 u/L
  CREATININE: 0.16 mg/dL
  GLUCOSE: 152 mg/dL
  LACTATE DEHYDROGENASE: 825.67 u/L
  LIPASE: 9 u/L
  SODIUM: 144.37 MEQ/L
  TOTAL BILIRUBIN: 0.17 mg/dL
  TOTAL PROTEIN: 5.9 G/DL
  URIC ACID: 1.63 mg/dL
[4]
  ABSOLUTE BASOPHIL: 0 CELLS/uL
  ABSOLUTE EOSINOPHIL: 0 CELLS/uL
  ABSOLUTE LYMPHOCYTE: 1316 CELLS/uL
  ABSOLUTE MONOCYTE: 12 CELLS/uL
  ABSOLUTE SEGMENTED NEUTROPHIL: 72 CELLS/uL
  BASOPHIL: 0%
  EOSINOPHIL: 0%
  ERYTHROCYTE COUNT: 6.07 x10E6/uL
  HEMATOCRIT: 37.4%
  HEMOGLOBIN: 15.17 G/DL
  LEUKOCYTE COUNT: 1.4 x10E3/uL
  LYMPHOCYTE: 94%
  MEAN CORPUSCULAR HEMOGLOBIN: 25.13 pg
  MEAN CORPUSCULAR HEMOGLOBIN CONCENTRATION: 40.6 G/DL
  MEAN CORPUSCULAR VOLUME: 61.83 fL
  MONOCYTE: 1%
  NEUTROPHIL: 5%
  NUCLEATED RED BLOOD CELLS: 0 /100WBC
  ALANINE AMINOTRANSFERASE: 29 u/L
  ALKALINE PHOSPHATASE: 172 u/L
  ASPARTATE AMINOTRANSFERASE: 79.33 u/L
  BLOOD UREA NITROGEN: 20.67 mg/dL
  CARBON DIOXIDE: 28 mmol/L
  CHOLESTEROL: 93 mg/dL
  CREATINE PHOSPHOKINASE: 725.67 u/L
  CREATININE: 0.12 mg/dL
  GLUCOSE: 151.33 mg/dL
  LACTATE DEHYDROGENASE: 374.33 u/L
  LIPASE: 8.67 u/L
  SODIUM: 141.7 MEQ/L
  TOTAL BILIRUBIN: 0.0667 mg/dL
  TOTAL PROTEIN: 5.67 G/DL
  URIC ACID: 1.37 mg/dL
